Data set [1] can be described thus: Bile resistance in artificial bile. The conditions noted are these: 0.3% oxgall, 37° C., 24 hours. It is filed as physicochemical. The procedure: Artificial bile was prepared by adding 3% of a 10% Bacto oxgall (Becton, Dickinson and Company) solution filtered through a 0.22-μm membrane to sterilized MRS broth to give a final oxgall concentration of 0.3%. […] 1 mL of the sample was taken, diluted decimally with 9 mL of saline, smeared on LAB Petrifilm, and incubated at 37° C. for 1-2 days to determine the number of live bacteria (Table 13). Bile resistance was calculated using the following equation. A sample incubated in MRS broth without addition of oxgall was used as a control group.

A short description of data set [2]: DPPH radical scavenging assay. It is filed as biochemical. To be noted: culture supernatant; relative to 2 mM ascorbic acid. How it is done: Louis, MO, USA) radical scavenging assay. […] 0.1 mM DPPH diluted in methanol was used in the experiment. […] The reaction mixture was centrifuged at 13,000 rpm for 1 minute. 200 μL of the supernatant was dispensed into a 96-well plate, and absorbance was measured at 517 nm using a microplate reader (Epoch microplate reader, Biotek Instruments, Inc., Winooski, VT, USA). DPPH radical scavenging activity was calculated using the following equation and expressed as a relative value to the DPPH radical scavenging activity of the positive control group, 2 mM ascorbic acid. DPPH Radical Scavenging Activity (%)=(1-(Absorbance of Sample/Absorbance of Control Group))×100

The next data set relates to RAW 264.7 cells. The data set is described as follows: NO production by RAW 264.7 macrophages (Griess reagent). It is filed as cell-based, mouse. The conditions noted are these: MOI 100, 24 hours, LPS 1 μg/mL as 100%. How it is done: RAW 264.7 cells (KCLB40071), which are mouse macrophages, were purchased from the Korean Cell Line Bank. They were inoculated to DMEM (high-glucose Dulbecco's modified Eagle's medium; GIBCO, Grand Island, NY, USA) containing 10% (v/v) fetal bovine serum (FBS, GIBCO) and 1% (v/v) penicillin-streptomycin (P/S, GIBCO), cultured at 37° C. in a 5% CO2 incubator (Thermo Fisher Scientific, Waltham, MA, USA), and then detached using a cell scraper (SPL, Pocheon, Korea).
Cell precipitates were harvested by centrifugation at 10,000 rpm for 5 minutes at 4° C. for 5 times. Afterward, they were washed three times with DPBS (Dulbecco's phosphate buffered saline; Welgene, Gyeongsan, Korea). […]
NO production by RAW 264.7 macrophages was measured using a Griess reagent. […] 100 µL of the culture was added to a 96-well plate and, after adding 100 μL of a Griess reagent A and a Griess reagent B of equal amounts, reaction was conducted for 15 minutes in the dark, and absorbance was measured at 540 nm with a microplate reader. A standard curve for NO production versus absorbance was constructed using a sample of 250 µM NaNO2 diluted 2-fold with DMEM to […], and NO concentration was calculated from the measured absorbance value.
A general note: Griess reagent forms a coloured azo dye with nitrite.

The nature of data set [3]: Pancreatic juice resistance in artificial pancreatic juice. The data set is classed as physicochemical. The conditions noted are these: 0.5% pancreatin, listed as LGG. How it is done:
Artificial pancreatic juice was prepared by adding 5% of a 10% pancreatin solution (0.85% NaCl, pH 8.0) filtered through a 0.22-μm membrane to sterilized MRS broth to a final pancreatin concentration of 0.5%. A Lactobacillus seed culture obtained by incubating at 37° C. for 20 hours after inoculation to MRS broth was added to 5 mL of the artificial pancreatic juice to 1% (v/v) and incubated at 37° C. […] Pancreatic juice resistance was calculated using the following equation. A sample at 0 hour of incubation was used as a control group. [formula]

Data set [4] in a line: Number of live bacteria and pH of coconut fermented milk. The conditions noted are these: coconut milk fermented at 37° C. for 16 hours; listed as LGG. The procedure:
Then, cells were harvested by centrifuging the Lactobacillus culture (13,000 rpm, 1 minute, 4° C.). The cell precipitate was washed 3 times with 0.85% (w/v) NaCl (sterile physiological saline) and then suspended in 1 mL of sterile physiological saline (The concentration of the suspension was 1×10^8 CFU/mL). (2) 1% (v/v) of the suspended strain was inoculated to 3 mL of coconut milk with a solid content of 8 wt %, and coconut fermented milk was prepared by fermenting at 37° C. for 16 hours. After measuring the pH of the coconut fermented milk prepared in Example 11-1, it was decimally diluted with sterile physiological saline and the number of live bacteria was counted on a […] lactic acid bacteria count plate (3M Company, St. Paul, MN, USA) after culturing for 1 to 2 days.

Data set [5] is described as follows: Acid resistance in artificial gastric fluid. It is filed as physicochemical. To be noted: pH 2.5, 2 h. How it is done: Artificial gastric fluid was prepared by adjusting the pH of 100 mM glycine-HCl buffer to 2.5. After inoculating Lactobacillus seed culture incubated at 37° C. for 20 hours to 1% (v/v) in 4 mL of MRS broth, the culture was incubated at 37° C. for 16 hours. The culture was centrifuged at 13000 rpm for 1 minute and the obtained cell precipitate was washed twice with 0.88% (w/v) NaCl (sterile physiological saline). The washed pellet was resuspended in 4 mL of the artificial gastric fluid and incubated at 37° C. After 2 hours of incubation, 1 mL of the sample was taken and centrifuged at 13000 rpm for 1 minute to obtain a cell pellet, which was washed three times with sterile physiological saline and resuspended in 1 mL of sterile physiological saline. After decimally diluting with 9 mL saline, followed by smearing on LAB Petrifilm, the sample was incubated at 37° C. for 1-2 days and the live bacteria were counted (Table 12). Acid resistance was calculated using the following equation. The sample at 0 hour of incubation was used as a control group. [formula]

A further data set concerns Caco-2 cells. The data set is described as follows: Ability of intestinal adherence. The data set is classed as cell-based, human. The conditions noted are these: MOI 200, 2 hours, listed as LGG. How it is done:
Caco-2 cells (human colorectal adenocarcinoma cells, HTB-37™), which are enterocyte-like cells, purchased from the ATCC were cultured in DMEM medium supplemented with 10% (v/v) FBS (Cornig) and 1% (v/v) P/S at 37° C. under 5% CO2 in an incubator (Thermo Fisher Scientific, Waltham, MA, USA). 0.25% trypsin-EDTA (GIBCO) was used to detach the cells from a culture flask.
500 μL of the Caco-2 cells were seeded in a 24-well plate at a density of 5×10^5 cells/well and cultured for 3 days at 37° C. and 5% CO2. The 24-well plate in which the Caco-2 cells were cultured was washed twice with 500 μL of DMEM medium supplemented with 10% FBS. After treating with Lactobacilli at a concentration of MOI 200, the cells were incubated at 37° C. and 5% CO2 for 2 hours. After the incubation, each well was washed four times with 500 μL of DPBS to remove the unattached strain. 200 μL of 0.25% trypsin-EDTA was dispensed into each well and incubated for 5 minutes at 37° C. and 5% CO2. The detached Caco-2 cells and strain were collected in a 1.5-mL tube together with […] of DPBS and centrifuged at 13,000 rpm for 1 minute to harvest a cell pellet, which was washed twice with 1 mL of DPBS. […] After decimal dilution, followed by smearing on Petrifilm and incubation at 37° C. for 24 hours, the number of live bacteria was determined. The ability of intestinal adhesion was calculated by the following equation.

Several values for one entry are separate records, joined by “and”; a condition that tells them apart may be missing. Identical values can stand only once.

In the case of Lactobacillus rhamnosus GG, the “Bile resistance (%)” value in data set [1] came to 63.6 ± 9.3%. The “DPPH radical scavenging activity (%)” value in data set [2] was 97.2%. In addition, the entries for the “NO production (% of positive control group)” value in the data set on RAW 264.7 cells and with RAW 264.7 cells (listed as LGG) were 18.5 ± 3.2% and 18.47%, respectively. For the same substance, the “live bacteria 0 h (CFU/mL)” value in data set [3] (0 h (control)) was 1.30 × 10^9 CFU/mL and 1.73 × 10^9 CFU/mL and 1.12 × 10^9 CFU/mL. Further, the “live bacteria 2 h (CFU/mL)” value in data set [3] (37° C., 2 h) is 3.14 × 10^9 CFU/mL and 3.87 × 10^9 CFU/mL and 2.74 × 10^9 CFU/mL. In addition, in data set [3] (average), the “Pancreatic juice resistance (%) Average” value was 104.1% and 104.1 ± 0.3%. Further, in data set [3] (single replicate), the “Pancreatic juice resistance (%)” value was 104.2% and 103.8% and 104.3%. Also, the pH in data set [4] was 3.57 and 3.57 ± 0.06. The results for the “Acid resistance (%) Average” value in data set [5] and in data set [5] (listed as LGG) were 83.3% and 83.3 ± 2.3%, respectively. Also, the “Acid resistance (%)” value in data set [5] (single replicate, listed as LGG) was 81.2% and 85.8% and 83.0%. Besides, the “Ability of intestinal adherence (%)” value with Caco-2 cells was 75.5% and 75.5 ± 9.3%.
